Assay results published in US9260484B2, “Small molecule composite surfaces as inhibitors of protein-protein interactions” (Ohio State Innovation Foundation, priority 2011, dated 2016).
Entries after “also recorded” stand apart in the source; their conditions may differ. Where two headings read alike, the source gives them in different places. Each block holds one compound with its values, some of them ahead of it. Numbered stars: 1 amine (or outer) side, 2 acyl side, 3 side chain; on linkers, the order of the positions; unused ones are H or OH. Bridge positions count the residues as written; N and C are the ends. Square brackets hold non-standard residues; d marks the D form. Peptide text beside a SMILES is read from it. dβ3h(hPhe) = O=C(C[C@@H](CCc1ccccc1)N[*:1])[*:2]; Phe(4-F) = N[C@@H](Cc1ccc(F)cc1)C(=O)O; d2Nal = N[C@H](Cc1ccc2ccccc2c1)C(=O)O; X1 = CC(C)(CO[*:2])C(=O)C(=O)[*:1]; dNle = CCCC[C@@H](N)C(=O)O; Pip = O=C(O)[C@@H]1CCCCN1

Key:
FKBP = biological target: T1, FKBP (Homo sapiens, UniProt P62942); test: fluorescence polarization (FA) competition assay for binding to FKBP
T1 construct: 200 nM recombinant FKBP
T1 sequence (P62942 whole entry): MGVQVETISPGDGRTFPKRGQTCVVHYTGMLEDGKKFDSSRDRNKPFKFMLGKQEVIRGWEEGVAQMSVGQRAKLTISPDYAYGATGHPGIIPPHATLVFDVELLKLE
Procedure: To facilitate solid-phase synthesis, an invariant glutamine was added to the C-terminal side of the R^1 residue, for the purpose of backbone peptide cyclization and providing an anchor for attachment to the solid support. For this set of compounds, the dipeptide Ala-Ala was used as the effector domain. The rapalogs were tested for binding to FKBP by a fluorescence polarization competition assay^22,23. SLF^24, was labeled with the fluorescent dye fluorescein^23. Binding of the labeled ligand to FKBP increases its fluorescence anisotropy (FA) values. Addition of an unlabeled ligand to the reaction inhibits the binding of SLF to FKBP and therefore decreases the FA values. […] Subsequently, the IC50 values were converted into KI values based on the Cheng-Prusoff equation.
A previously reported synthetic ligand of FKBP^46 (SLF in FIG. 2), was labeled with the fluorescent dye fluorescein^20. Binding of the labeled ligand to FKBP increases its fluorescence anisotropy (FA) value.
The fluorescence polarization based competition assay was performed in a 384-well plate. […] After the addition of the rapalogs as the last component, the binding reactions were incubated for 1 h at room temperature to reach binding equilibrium. Anisotropy values were measured on a FlexStation 3 plate reader (Molecular Devices, Sunnyvale, Calif.).

K-Ras and Tiam = K-Ras and Tiam (Homo sapiens, UniProt P01116, G12V); test: bead assay: K-Ras binding to immobilized Myc-tagged effector protein; details: 10 μM compound; Texas red-labeled GST-K-Ras 100 nM
K-Ras and Tiam, sequence (P01116 1-188 isoform P01116-2 G12V): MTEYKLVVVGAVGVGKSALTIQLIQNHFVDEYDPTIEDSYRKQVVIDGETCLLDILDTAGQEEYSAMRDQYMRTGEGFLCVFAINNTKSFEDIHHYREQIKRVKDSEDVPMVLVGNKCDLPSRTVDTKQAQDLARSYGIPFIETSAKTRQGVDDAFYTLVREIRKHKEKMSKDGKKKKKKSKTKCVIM
Procedure: (§1) Compound B12 was also assayed for its ability to inhibit the PPI between K-Ras and its effector proteins including PI3 kinase, Tiam, and RalGDS. The Myc-tagged effector proteins were immobilized on protein A-beads with an anti-Myc antibody.

K-Ras and PI3 kinase = K-Ras and PI3 kinase (Homo sapiens, UniProt P01116, G12V); test: as above; details: 10 μM compound; Texas red-labeled GST-K-Ras 100 nM
K-Ras and PI3 kinase, sequence (P01116 1-188 isoform P01116-2 G12V): as above
Procedure: as §1

[1] = tested on: A549 lung cancer cell line; test: MTT viability assay; format: cell-based, human
Procedure: (§2) FIG. 14. MTT viability assay with H358 and A549 lung cancer cell lines (both have mutant K-Ras). The assay was performed to assess the effect of compound B12 on proliferation and survival of these cell lines.
(§3) Finally, preliminary cellular assays were performed with compound […]. Singh et al. used RNA interference to down regulate mutant K-RAS in a large number of human cancer cell lines.^102 They reported that the H358 cell line is very sensitive to losing mutant K-Ras whereas the A549 cell line is hardly affected. Both are lung cancer cell lines.

[2] = tested on: H358 lung cancer cell line; test: MTT viability assay; format: cell-based, human
Procedure: as §2, §3

K-Ras and RalGDS = K-Ras and RalGDS (Homo sapiens, UniProt P01116, G12V); test: bead assay: K-Ras binding to immobilized Myc-tagged effector protein; details: 10 μM compound; Texas red-labeled GST-K-Ras 100 nM
K-Ras and RalGDS, sequence (P01116 1-188 isoform P01116-2 G12V): as above
Source text: The Myc-tagged effector proteins were immobilized on protein A-beads with an anti-Myc antibody.

FKBP (no GST) = FKBP (no GST) (Homo sapiens, UniProt P62942); test: fluorescence polarization binding of FITC-labeled compound to FKBP
FKBP (no GST), sequence (P62942 whole entry): as the sequence (P62942 whole entry) above

[3] = Table 2, converted from IC50 by Cheng-Prusoff equation, read-out: Ki

SMILES: C[C@@H]1NC(=O)[C@H](C)NC(=O)[C@H](CCC(N)=O)NC(=O)C[C@H](CCc2ccccc2)NC(=O)[C@@H]2CCCCN2C(=O)C(=O)C(C)(C)COC(=O)[C@H](Cc2ccccc2)NC1=O [Compound 2j]
Ki (FKBP): 800 ± 100 nM

Ki (FKBP; [3]): 7000 ± 1000 nM
SMILES: C[C@@H]1NC(=O)[C@H](C)NC(=O)[C@H](CCC(N)=O)NC(=O)[C@H](C)NC(=O)[C@@H]2CCCCN2C(=O)C(=O)C(C)(C)COC(=O)[C@@H](C)NC1=O [Compound 2a] (HELM PEPTIDE1{[O=C([C@@H]1CCCCN1[*:1])[*:2]].A.Q.A.A.[dA]}|CHEM1{[CC(C)(CO[*:2])C(=O)C(=O)[*:1]]}$PEPTIDE1,CHEM1,1:R1-1:R1|PEPTIDE1,CHEM1,6:R2-1:R2$$$V2.0)

SMILES: CCCC[C@H]1NC(=O)[C@H](Cc2ccc(F)cc2)NC(=O)[C@H](CCCNC(=N)N)NC(=O)[C@@H](Cc2ccc3ccccc3c2)NC(=O)[C@H](CCCNC(=N)N)NC(=O)[C@H](CCCNC(=N)N)NC(=O)[C@H](CCC(N)=O)NC(=O)C[C@@H](CCc2ccccc2)NC(=O)[C@@H]2CCCCN2C(=O)C(=O)C(C)(C)COC1=O [Compound C12] ([Pip][dβ3h(hPhe)]QRR[d2Nal]R[Phe(4-F)][dNle]; linker N-C via X1)
binding of GST-KRas to immobilized Tiam (K-Ras and Tiam): completely blocked
binding of GST-KRas to immobilized PI3 kinase (K-Ras and PI3 kinase): completely blocked
IC50 ([1]; A549 cells, proliferation and survival, preliminary): ~50000 nM
sensitivity of cells to compound ([1]; FIG. 14): significantly less sensitive
sensitivity of cells to compound ([2]; FIG. 14): sensitive
IC50 ([2]; H358 cells, proliferation and survival, preliminary): ~10000 nM
binding of GST-KRas to immobilized RalGDS (K-Ras and RalGDS): completely blocked; also recorded: Disruption

Ki (FKBP; [3]): 180 ± 60 nM
SMILES: C[C@@H]1NC(=O)[C@H](C)NC(=O)[C@H](CCC(N)=O)NC(=O)C[C@@H](CCc2ccccc2)NC(=O)[C@@H]2CCCCN2C(=O)C(=O)C(C)(C)COC(=O)[C@@H](C)NC(=O)[C@H](C)NC1=O [Compound 2p] ([Pip][dβ3h(hPhe)]QAAA[dA]; linker N-C via X1)

Ki (FKBP; [3]): 300 ± 100 nM
SMILES: C[C@@H]1NC(=O)[C@H](C)NC(=O)[C@H](CCC(N)=O)NC(=O)C[C@@H](CCc2ccccc2)NC(=O)[C@@H]2CCCCN2C(=O)C(=O)C(C)(C)COC(=O)[C@H]([C@@H](C)O)NC(=O)[C@H](C)NC1=O [Compound 2r] ([Pip][dβ3h(hPhe)]QAAAT; linker N-C via X1)

SMILES: CCCC[C@H]1NC(=O)[C@H](Cc2ccc(F)cc2)NC(=O)[C@H](CCCN=C(N)N)NC(=O)[C@@H](Cc2ccc3ccccc3c2)NC(=O)[C@H](CCCN=C(N)N)NC(=O)[C@H](CCCN=C(N)N)NC(=O)[C@H](CCC(N)=O)NC(=O)C[C@@H](CCc2ccccc2)NC(=O)[C@@H]2CCCCN2C(=O)C(=O)C(C)(C)COC1=O [Compound C12] ([Pip][dβ3h(hPhe)]QRR[d2Nal]R[Phe(4-F)][dNle]; linker N-C via X1)
Kd (FKBP (no GST)): 500 nM

SMILES: C[C@@H]1NC(=O)[C@H](CCC(N)=O)NC(=O)C[C@@H](CCc2ccccc2)NC(=O)[C@@H]2CCCCN2C(=O)C(=O)C(C)(C)COC(=O)[C@H](Cc2ccccc2)NC(=O)[C@H](C)NC(=O)[C@@H](C)NC1=O [Compound 2s] ([Pip][dβ3h(hPhe)]QA[dA]AF; linker N-C via X1)
Ki (FKBP): 900 ± 200 nM
